Laboratory results reported in PMC9260974 (BMC Pharmacology & Toxicology, 2022).
Several values for one entry are separate records, joined by “and”; a condition that tells them apart may be missing. Identical values can stand only once. Like-named read-outs stand apart in the source and are kept apart here.

Experiments:
[1] = tested on: blood pressure; conditions: after oral administration; cited from earlier work
[2] = lisinopril; cited from earlier work
[3] = human, in vivo
Experimental: (§1) All eligible subjects were assigned according to the random table generated by SAS 9.4 and took the test (T) and reference(R) drugs respectively with 240 ml water after an overnight fast of at least 10 h (fasting study) or after the high-fat breakfast within half an hour before dosing (fed study). […] Subjects were forbidden to drink water within 1 h before and after taking the drug, and the lunch and dinner were provided at 4 h and 8 h respectively post-drug administration. No other food and beverage intake was permitted except the provided diets. […] 4 ml venous blood samples were collected before drug administration and at 1,2,3,4,5,6,7,8,9,10,11,12,13,24,36,48,72,96,144,168 h after administration. The samples were centrifuged at 1700gear per minute for 10 min at 4℃ to separate the plasma, which was divided into two aliquots (drug monitoring at least 800ul and backup) and stored at - 80℃until analysis.
(§2) The lower limit of quantification (LLOQ) was 0.500 ng/mL and the assay dynamic range was 0.500-100 ng/mL.
(§3) Under multiple reaction monitoring, LC–MS/MS system adopts positive ionization mode.
(§4) Data collection and analysis was performed with Analyst 1.6.3 software (Sciex, Canada) and Watson LIMS (Thermo, USA). Calibration curves were constructed using linear regression equation obtained by the weighted (W = 1/X2) least square method fitting for both analytes. Quantitation of quality control and clinical samples were also performed by the Analyst software using the same mathematical algorithm as that used in the calibration of standard curves.
(§5) For the purpose of bioequivalence analysis, the maximum observed concentration (Cmax), the area under the plasma concentration–time curve from time 0 to the last measured time point (AUC0-t), and the area under the plasma concentration–time curve from time 0 to infinity (AUC0-∞) were considered as primary PK parameters. The secondary PK parameters were the observed time to Cmax (Tmax) and the apparent terminal half-life (T1/2). Cmax and Tmax were the factually measured data and AUC0-t was calculated using the linear and logarithmic trapezoidal methods. AUC0-∞ was calculated according to the following formula: AUC0-∞ = AUC0-t + Clast/λz (Clast is the last measurable concentration and is the first order rate constant of terminal elimination determined from a linear regression line after logarithmic transformation at the end of concentration time curve. λz is the slope calculated by linear regression after logarithmic conversion at the end of the concentration–time curve). T1/2 was calculated to be ln2/λ.
(§6) Statistical analysis was performed by SAS 9.4. Demographic characteristics, safety parameters and pharmacokinetic data were summarized using descriptive statistics, the results were presented as the mean ± SD and the differences between groups were determined by two one-sided tests. […] AUC and Cmax were logarithmically transformed and analyzed by linear mixed effect model. Sequence, period and formulation were fixed effects, and subject within sequence was included as a random effect. Analysis of variance (ANOVA) of cross-over design was performed on the log-transformed variables. […] Bioequivalence was assessed separately in both the fasting and fed groups.

[4] = Single-dose two-period crossover bioequivalence study, fed (high-fat breakfast): plasma pharmacokinetics of lisinopril and amlodipine (LC-MS/MS, NCA); conditions: for concentration at 3 h / concentration at 10 h / concentration at 6 h / concentration at 5 h / concentration at 7 h / concentration at 8 h / concentration at 11 h / concentration at 12 h / concentration at 0 h / concentration at 1 h / concentration at 2 h / concentration at 4 h / concentration at 9 h / concentration at 13 h / concentration at 24 h / concentration at 36 h / concentration at 48 h / concentration at 72 h / concentration at 96 h / concentration at 144 h / concentration at 168 h: human, po, Plasma concentration of lisinopril; for concentration at 3 h: nominal time 3 h; for concentration at 3 h / concentration at 10 h / concentration at 6 h / concentration at 5 h / concentration at 7 h / concentration at 8 h / concentration at 11 h / concentration at 12 h / concentration at 0 h / concentration at 1 h / concentration at 2 h / concentration at 4 h / concentration at 9 h / concentration at 13 h / concentration at 24 h / concentration at 36 h / concentration at 48 h / concentration at 72 h / concentration at 96 h / concentration at 144 h / concentration at 168 h / Plasma concentration of lisinopril: reference (R) tablets; for concentration at 10 h: nominal time 10 h; for concentration at 6 h: nominal time 6 h; for concentration at 5 h: nominal time 5 h; for concentration at 7 h: nominal time 7 h; for concentration at 11 h: nominal time 11 h; for concentration at 12 h: nominal time 12 h; for concentration at 0 h: nominal time 0 h; for concentration at 2 h: nominal time 2 h; for concentration at 4 h: nominal time 4 h; for concentration at 9 h: nominal time 9 h; for concentration at 13 h: nominal time 13 h; for concentration at 24 h: nominal time 24 h; for concentration at 36 h: nominal time 36 h; for concentration at 48 h: nominal time 48 h; for concentration at 72 h: nominal time 72 h; for concentration at 96 h: nominal time 96 h; for Plasma concentration of lisinopril: oral, listed as LSN;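 as to Plasma concentration of lisinopril: single tablet dose 10 mg/5 mg fixed combination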
Experimental: as §1, §2, §3, §4, §5, §6

[5] = clinical; conditions: human, plasma, po
Experimental: as §1, §2, §3, §4, §5, §6

[6] = plasma, Max, maximum among subjects
[7] = plasma, Mean, mean of 37 subjects
[8] = plasma, Min, minimum among subjects
[9] = lisinopril, intra-subject coefficient of variation

In the case of `NCCCC[C@H](N[C@@H](CCc1ccccc1)C(=O)O)C(=O)N1CCC[C@H]1C(=O)O` [lisinopril], the “Time to appearance of antihypertensive effect” value [1] is given as ≤ 1 h, the “Time to peak antihypertensive effect” value [1] is given as “about 6 h” and the “Decrease of AUC0-24 by concomitant EGCG-concentrated green tea extract” value [2] is given as 69%. For the same compound, the “Decrease of AUC0-∞ by concomitant EGCG-concentrated green tea extract” value [2] was 67%, the “Decrease of Cmax by concomitant EGCG-concentrated green tea extract” value [2] was 71% and the “Mean fecal recovery of intact drug” value [2] was 69%. The “Intra-CV (%) of AUC0-t” value [3] was 19.3%, the “Intra-CV (%) of AUC0-∞” value [3] was 17.0% and the “Intra-CV (%) of Cmax” value [3] was 24.3%. For the same compound, the concentration at 3 h ([4]; in vivo, Max, maximum among subjects) was 22.4 ng/mL, the concentration at 10 h ([4]; in vivo, Mean, mean of 36 subjects) was 12.9 ng/mL and the concentration at 6 h ([4]; in vivo, Mean, mean of 37 subjects) was 13.3 ng/mL. For the same compound, the concentration at 3 h ([4]; in vivo, individual subjects) was 22.4 ng/mL, the concentration at 5 h ([4]; in vivo, individual subjects) was 12.9 ng/mL and the concentration at 6 h ([4]; in vivo, individual subjects) was 22.4 ng/mL. It also gave a concentration at 7 h ([4]; in vivo, individual subjects) of 22.4 ng/mL, a concentration at 8 h ([4]; in vivo, individual subjects, nominal time 8 h) of 22.4 ng/mL and a concentration at 11 h ([4]; in vivo, individual subjects) of 12.9 ng/mL. It also gave a concentration at 12 h ([4]; in vivo, individual subjects) of 13.3 ng/mL, a concentration at 0 h [4, 6] of 0.532 ng/mL and a concentration at 1 h ([4]; plasma, Max, maximum among subjects, nominal time 1 h) of 3.22 ng/mL. For the same compound, the concentration at 2 h [4, 6] was 12 ng/mL, the concentration at 4 h [4, 6] was 29.2 ng/mL and the concentration at 5 h [4, 6] was 29.7 ng/mL. It also gave a concentration at 6 h [4, 6] of 29.5 ng/mL, a concentration at 7 h [4, 6] of 29.8 ng/mL and a concentration at 8 h ([4]; plasma, Max, maximum among subjects, nominal time 8 h) of 27.4 ng/mL. For the same compound, the concentration at 9 h [4, 6] was 27.1 ng/mL, the concentration at 10 h [4, 6] was 24.1 ng/mL and the concentration at 11 h [4, 6] was 21.9 ng/mL. The concentration at 12 h [4, 6] was 20.8 ng/mL, the concentration at 13 h [4, 6] was 19 ng/mL and the concentration at 24 h [4, 6] was 8.44 ng/mL. For the same compound, the concentration at 36 h [4, 6] was 3.64 ng/mL, the concentration at 48 h [4, 6] was 3.23 ng/mL and the concentration at 72 h [4, 6] was 2.87 ng/mL. The concentration at 96 h [4, 6] was 2.72 ng/mL, the concentration at 144 h ([4]; plasma, Max, maximum among subjects, nominal time 144 h) was 2.07 ng/mL and the concentration at 168 h ([4]; plasma, Max, maximum among subjects, nominal time 168 h) was 1.66 ng/mL. The concentration at 0 h [4, 7] was 0.0284 ng/mL, the concentration at 1 h ([4]; plasma, Mean, mean of 37 subjects, nominal time 1 h) was 0.795 ng/mL and the concentration at 2 h [4, 7] was 2.85 ng/mL. The concentration at 3 h [4, 7] was 5.92 ng/mL, the concentration at 4 h [4, 7] was 9.3 ng/mL and the concentration at 5 h [4, 7] was 11.9 ng/mL. It also gave a concentration at 7 h [4, 7] of 13.9 ng/mL, a concentration at 8 h ([4]; plasma, Mean, mean of 37 subjects, nominal time 8 h) of 14 ng/mL and a concentration at 9 h [4, 7] of 13.5 ng/mL. The concentration at 11 h [4, 7] was 12 ng/mL, the concentration at 12 h [4, 7] was 10.8 ng/mL and the concentration at 13 h [4, 7] was 9.81 ng/mL. The concentration at 24 h [4, 7] was 4.32 ng/mL, the concentration at 36 h [4, 7] was 2.32 ng/mL and the concentration at 48 h [4, 7] was 1.88 ng/mL. It also gave a concentration at 72 h [4, 7] of 1.46 ng/mL, a concentration at 96 h [4, 7] of 1.21 ng/mL and a concentration at 144 h ([4]; plasma, Mean, mean of 37 subjects, nominal time 144 h) of 0.741 ng/mL. The concentration at 168 h ([4]; plasma, Mean, mean of 37 subjects, nominal time 168 h) was 0.639 ng/mL, the concentration at 0 h [4, 8] was 0 ng/mL and the concentration at 1 h ([4]; plasma, Min, minimum among subjects, nominal time 1 h) was 0 ng/mL. It also gave a concentration at 2 h [4, 8] of 0 ng/mL, a concentration at 3 h [4, 8] of 0.89 ng/mL and a concentration at 4 h [4, 8] of 1.37 ng/mL. It also gave a concentration at 5 h [4, 8] of 2.12 ng/mL, a concentration at 6 h [4, 8] of 3.02 ng/mL and a concentration at 7 h [4, 8] of 3.34 ng/mL. For the same compound, the concentration at 8 h ([4]; plasma, Min, minimum among subjects, nominal time 8 h) was 3.75 ng/mL, the concentration at 9 h [4, 8] was 4.2 ng/mL and the concentration at 10 h [4, 8] was 4.09 ng/mL. The concentration at 11 h [4, 8] was 3.97 ng/mL, the concentration at 12 h [4, 8] was 3.57 ng/mL and the concentration at 13 h [4, 8] was 3.73 ng/mL. The concentration at 24 h [4, 8] was 2.31 ng/mL, the concentration at 36 h [4, 8] was 1.27 ng/mL and the concentration at 48 h [4, 8] was 0.976 ng/mL. It also gave a concentration at 72 h [4, 8] of 0.736 ng/mL, a concentration at 96 h [4, 8] of 0.564 ng/mL and a concentration at 144 h ([4]; plasma, Min, minimum among subjects, nominal time 144 h) of 0 ng/mL. For the same compound, the concentration at 168 h ([4]; plasma, Min, minimum among subjects, nominal time 168 h) was 0 ng/mL, the “Plasma concentration of lisinopril” value ([4]; individual subjects, nominal time 1 h) was 0.899 ng/mL and 0.567 ng/mL and 0.719 ng/mL and 1.48 ng/mL and 3.22 ng/mL and 1.13 ng/mL and 0.941 ng/mL and 3.14 ng/mL and 0.842 ng/mL and 1.25 ng/mL and 0.826 ng/mL and 0.793 ng/mL and 1.55 ng/mL and 0.556 ng/mL and 0.744 ng/mL and 1.26 ng/mL and 1.43 ng/mL and 0.747 ng/mL and 1.81 ng/mL and 0.710 ng/mL and 0.799 ng/mL and 0.831 ng/mL and 2.32 ng/mL and the “Plasma concentration of lisinopril” value ([4]; individual subjects, nominal time 8 h) was 13.3 ng/mL. For the same compound, the “Plasma concentration of lisinopril” value ([4]; individual subjects, nominal time 144 h) was 1.05 ng/mL and 0.866 ng/mL and 2.07 ng/mL and 0.911 ng/mL and 0.569 ng/mL and 0.775 ng/mL and 0.691 ng/mL and 0.777 ng/mL and 0.834 ng/mL and 0.868 ng/mL and 0.514 ng/mL and 0.885 ng/mL and 0.919 ng/mL and 1.07 ng/mL and 1.00 ng/mL and 1.32 ng/mL and 0.715 ng/mL and 0.954 ng/mL and 1.83 ng/mL and 0.661 ng/mL and 0.869 ng/mL and 0.760 ng/mL and 0.582 ng/mL and 0.969 ng/mL and 0.992 ng/mL and 0.736 ng/mL and 0.576 ng/mL and 1.56 ng/mL and 1.10 ng/mL, the “Plasma concentration of lisinopril” value ([4]; individual subjects, nominal time 168 h) was 0.904 ng/mL and 0.689 ng/mL and 1.66 ng/mL and 0.780 ng/mL and 0.534 ng/mL and 0.708 ng/mL and 0.504 ng/mL and 0.629 ng/mL and 0.750 ng/mL and 0.711 ng/mL and 0.787 ng/mL and 0.832 ng/mL and 0.987 ng/mL and 0.890 ng/mL and 1.20 ng/mL and 0.696 ng/mL and 0.773 ng/mL and 0.528 ng/mL and 1.38 ng/mL and 0.522 ng/mL and 0.761 ng/mL and 0.659 ng/mL and 0.502 ng/mL and 0.849 ng/mL and 0.785 ng/mL and 0.620 ng/mL and 0.572 ng/mL and 1.04 ng/mL and the “Intra-CV (%) of AUC0-t” value [4, 9] was 13.3%. For the same compound, the “Intra-CV (%) of AUC0-∞” value [4, 9] was 12.9%, the “Intra-CV (%) of Cmax” value [4, 9] was 22.4% and the concentration at 0 h [5] was 0.517 ng/mL.
